How the values were obtained:
wheat [1] = test: Necrosis (adverse effects) of seed treatment on wheat seeds; assay type: in vivo; conditions: 20 days after sowing
Experimental: A pot experiment was performed to evaluate necrosis (adverse effects) caused by the seed treatment. Compound (1-1a) and Compound (1-2a), each which was dissolved in DMSO to make up such a concentration that the seeds would be treated in treatment amount of 2 g to 200 g ai/100 kg seeds, were each applied to wheat seeds in a vial, and thereafter 8 wheat seeds were sowed in an 80-cm^2 pot. The pot was kept in a greenhouse with water supplied to its bottom. 20 days after the sowing, an extent of necrosis (percentage of necrotic surface area) of wheat was evaluated. A necrosis index was derived from the percentage of the necrotic surface area, based on the criteria shown by Table 13. In Table 13, a smaller necrosis index indicates a lesser adverse effect of necrosis caused by the treatment with the use of a plant disease controlling agent.

Botrytis cinerea = test: Test 1 for antifungal effect, plate medium: B.c; assay type: cell-based; conditions: PDA plate medium
Experimental: (§1) Compound (1-1a) or Compound (1-2a) was dissolved in dimethyl sulfoxide, and the resulting solution was added to a PDA medium (potato dextrose-agar medium) at about 60° C. The medium and the solution were mixed thoroughly in a conical flask, poured into a petri dish, and allowed to solidify. In this way, a plate medium containing Compound (1-1a) or Compound (1-2a) at a certain concentration was prepared.
(§2) Meanwhile, test microorganisms cultured on a plate medium in advance were cut out with the use of a cork borer 4 mm in diameter, and were inoculated onto the compound-containing plate medium. After the inoculation, the microorganisms were cultured at their optimum growth temperatures (for example, refer to LIST OF CULTURES 1996 microorganisms 10th edition, Institute for Fermentation (foundation)) for 1 day to 7 days, and their growth was determined by measuring the diameter of their flora. The extent of growth of the microorganisms on the compound-containing plate medium was compared with that of microorganisms on a plate medium where no compound was added, and mycelial growth inhibition rate was calculated by the following equation: R=100(dc−dt)/dc where R is mycelial growth inhibition rate (%), dc is the flora diameter in untreated plate, and dt is the flora diameter in plate treated with the compound.
(§3) A larger antifungal index indicates a better antifungal effect.

Fusarium oxysporum = test: Test 2 for antifungal effect, plate medium: F.c; assay type: cell-based; conditions: PDA plate medium
Experimental: as §1, with “(1-1b)” for “(1-1a)”, “(1-2b)” for “(1-2a)”
Meanwhile, test microorganisms cultured on a plate medium in advance were cut out with the use of a cork borer 4 mm in diameter, and were inoculated onto the compound-containing plate medium. After the inoculation, the pathogens were cultured at their optimum growth temperatures (for example, refer to LIST OF CULTURES 1996 microorganisms 10th edition, Institute for Fermentation (foundation)) for 1 day to 7 days, and their growth was determined by measuring the diameter of their flora. The extent of growth of the pathogens on the compound-containing plate medium was compared with that of pathogens on a plate medium where no compound was added, and mycelial growth inhibition rate was calculated as in Experiment Example 10. Note that, in Experiment Example 11, controls used in the antifungal effect tests are Compound (1-1a) and Compound (1-2a) instead of Compound (1-1b) and Compound (1-2b), respectively.
The results were rated on a 1-to-5 scale as in Experiment Example 10.

Phaeosphaeria nodorum = test: Test 1 for antifungal effect, plate medium: P.n; assay type: cell-based; conditions: PDA plate medium
Experimental: as §1, §2, §3

Glomerella cingurata = test: Test 1 for antifungal effect, plate medium: G.c; assay type: cell-based; conditions: PDA plate medium
Experimental: as §1, §2, §3

Gaeumannomyces graminis = test: Test 1 for antifungal effect, plate medium: G.g; assay type: cell-based; conditions: PDA plate medium
Experimental: as §1, §2, §3

wheat [2] = test: Growth inhibition (adverse effects) of seed treatment on wheat seeds; assay type: in vivo; conditions: for Growth inhibition index: wheat, 20 days after sowing
Experimental: A pot experiment was performed to evaluate the growth inhibition (adverse effects) caused by the seed treatment. Compound (1-1a) and Compound (1-2a), each of which was dissolved in DMSO to make up such a concentration that the seeds would be treated in treatment amount of 2 g to 200 g ai/100 kg seeds, were each applied to wheat seeds in a vial, and thereafter 8 wheat seeds were sowed in an 80-cm^2 pot. The pot was kept in a greenhouse with water supplied to its bottom. 20 days after the sowing, a growth measure of wheat was evaluated. A growth inhibition index was calculated based on the criteria shown by Table 10. In Table 10, a smaller growth inhibition index indicates a lesser adverse effect of growth inhibition caused by the treatment with the use of a plant disease controlling agent.

Puccinia recondita = test: Controlling effect on wheat brown rust (leaf rust) by foliage spray treatment (Tests 1 and 2); assay type: in vivo; conditions: foliage spray 0.8 mg/L, 1,000 L/ha, 11 days after inoculation
Experimental: The wheat plants had been grown in square plastic pots (6 cm×6 cm). The suspensions were left to dry, and inoculated with spores of Puccinia recondita (adjusted at 200 spores per field of vision, Gramin S was added at 60 ppm) by spraying, and kept at 25° C. in a high humidity environment for 48 hours. After that, the plants were kept in a greenhouse. 11 days after the inoculation, the lesion degree of the wheat leaf rust was examined in accordance with the criteria shown in Table 4, and the protective values were calculated by the following equation. Protective value (%)=(1−Average lesion degree in sprayed plot/Average lesion degree in unsprayed plot)×100
The wheat plants had been grown in square plastic pots (6 cm×6 cm). The leaves were air-dried, and inoculated with spores of Puccinia recondita (adjusted at 200 spores per field of vision, Gramin S was added at 60 ppm) by spraying, and kept at 25° C. in a high humidity environment for 48 hours. After that, the plants were kept in a greenhouse. 11 days after the inoculation, the lesion degree of the wheat leaf rust was examined, and the protective values were calculated as were in Experiment Example 2.

[3] = treatment amount 2 g ai/100 kg seeds
[4] = treatment amount 20 g ai/100 kg seeds
[5] = treatment amount 200 g ai/100 kg seeds

SMILES	Necrosis index (wheat [1]; [3])	Necrosis index (wheat [1]; [4])	Necrosis index (wheat [1]; [5])	Antifungal index (mycelial growth inhibition rate) (Botrytis cinerea; 0.16 mg/L)	Antifungal index (mycelial growth inhibition rate) (Botrytis cinerea; 0.31 mg/L)	Antifungal index (mycelial growth inhibition rate) (Botrytis cinerea; 0.63 mg/L)	Antifungal index (mycelial growth inhibition rate) (Botrytis cinerea; 1.25 mg/L)	Antifungal index (mycelial growth inhibition rate) (Botrytis cinerea; 2.50 mg/L)	Antifungal index (mycelial growth inhibition rate) (Fusarium oxysporum; 0.04 mg/L)	Antifungal index (mycelial growth inhibition rate) (Fusarium oxysporum; 0.08 mg/L)	Antifungal index (mycelial growth inhibition rate) (Fusarium oxysporum; 0.16 mg/L)	Antifungal index (mycelial growth inhibition rate) (Fusarium oxysporum; 0.31 mg/L)	Antifungal index (mycelial growth inhibition rate) (Fusarium oxysporum; 0.63 mg/L)	Antifungal index (mycelial growth inhibition rate) (Fusarium oxysporum; 1.25 mg/L)	Antifungal index (mycelial growth inhibition rate) (Phaeosphaeria nodorum; 0.16 mg/L)	Antifungal index (mycelial growth inhibition rate) (Phaeosphaeria nodorum; 0.31 mg/L)	Antifungal index (mycelial growth inhibition rate) (Phaeosphaeria nodorum; 0.63 mg/L)	Antifungal index (mycelial growth inhibition rate) (Phaeosphaeria nodorum; 1.25 mg/L)	Antifungal index (mycelial growth inhibition rate) (Phaeosphaeria nodorum; 2.50 mg/L)	Antifungal index (mycelial growth inhibition rate) (Glomerella cingurata; 0.16 mg/L)	further results
CC1(CCl)CCC(Cc2ccc(F)cc2)C1(O)Cn1cncn1 (single isomer, unassigned) [Compound (1-2b), (1,2-cis, 1,5-cis)-5-(4-fluorobenzyl)-2-chloromethyl-2-methyl-1-(1H-1,2,4-triazole-1-ylmethyl)cyclopentanol]	0 (Less than 1%)	3 (20% or more)	3 (20% or more)	1 (Less than 60%)	3 (Less than 80% but not less than 70%)	5 (90% or greater)	5 (90% or greater)	5 (90% or greater)	1 (Less than 60%)	2 (Less than 70% but not less than 60%)	3 (Less than 80% but not less than 70%)	4 (Less than 90% but not less than 80%)	5 (90% or greater)	5 (90% or greater)	1 (Less than 60%)	1 (Less than 60%)	2 (Less than 70% but not less than 60%)	3 (Less than 80% but not less than 70%)	5 (90% or greater)	3 (Less than 80% but not less than 70%)	Antifungal index (mycelial growth inhibition rate) (Glomerella cingurata; 0.31 mg/L): 4 (Less than 90% but not less than 80%); Antifungal index (mycelial growth inhibition rate) (Glomerella cingurata; 0.63 mg/L): 5 (90% or greater); Antifungal index (mycelial growth inhibition rate) (Glomerella cingurata; 1.25 mg/L): 5 (90% or greater); Antifungal index (mycelial growth inhibition rate) (Glomerella cingurata; 2.50 mg/L): 5 (90% or greater); Antifungal index (mycelial growth inhibition rate) (Gaeumannomyces graminis; 0.16 mg/L): 1 (Less than 60%); Antifungal index (mycelial growth inhibition rate) (Gaeumannomyces graminis; 0.31 mg/L): 1 (Less than 60%); Antifungal index (mycelial growth inhibition rate) (Gaeumannomyces graminis; 0.63 mg/L): 4 (Less than 90% but not less than 80%); Antifungal index (mycelial growth inhibition rate) (Gaeumannomyces graminis; 1.25 mg/L): 5 (90% or greater); Antifungal index (mycelial growth inhibition rate) (Gaeumannomyces graminis; 2.50 mg/L): 5 (90% or greater); Growth of the treated seeds (wheat [2]; wheat seed treatment 20 g ai/100 kg seeds (seen in the brown rust seed treatment test)): inhibited; Growth inhibition index (wheat [2]; [3]): 0 (50% or more); Growth inhibition index (wheat [2]; [4]): 4 (Less than 20% but 10% or more); Growth inhibition index (wheat [2]; [5]): 5 (Less than 10%); Protective value (%) (Puccinia recondita): 80%
CC1(CCl)CCC(Cc2ccc(Cl)cc2)C1(O)Cn1cncn1 (single isomer, unassigned) [Compound (1-1b), (1,2-cis, 1,5-cis)-5-(4-chlorobenzyl)-2-chloromethyl-2-methyl-1-(1H-1,2,4-triazole-1-ylmethyl)cyclopentanol]	0 (Less than 1%)	2 (Less than 20% but not less than 5%)	2 (Less than 20% but not less than 5%)	1 (Less than 60%)	1 (Less than 60%)	3 (Less than 80% but not less than 70%)	4 (Less than 90% but not less than 80%)	5 (90% or greater)	1 (Less than 60%)	3 (Less than 80% but not less than 70%)	4 (Less than 90% but not less than 80%)	5 (90% or greater)	5 (90% or greater)	5 (90% or greater)	2 (Less than 70% but not less than 60%)	2 (Less than 70% but not less than 60%)	2 (Less than 70% but not less than 60%)	3 (Less than 80% but not less than 70%)	5 (90% or greater)	2 (Less than 70% but not less than 60%)	Antifungal index (mycelial growth inhibition rate) (Glomerella cingurata; 0.31 mg/L): 4 (Less than 90% but not less than 80%); Antifungal index (mycelial growth inhibition rate) (Glomerella cingurata; 0.63 mg/L): 5 (90% or greater); Antifungal index (mycelial growth inhibition rate) (Glomerella cingurata; 1.25 mg/L): 5 (90% or greater); Antifungal index (mycelial growth inhibition rate) (Glomerella cingurata; 2.50 mg/L): 5 (90% or greater); Antifungal index (mycelial growth inhibition rate) (Gaeumannomyces graminis; 0.16 mg/L): 1 (Less than 60%); Antifungal index (mycelial growth inhibition rate) (Gaeumannomyces graminis; 0.31 mg/L): 1 (Less than 60%); Antifungal index (mycelial growth inhibition rate) (Gaeumannomyces graminis; 0.63 mg/L): 2 (Less than 70% but not less than 60%); Antifungal index (mycelial growth inhibition rate) (Gaeumannomyces graminis; 1.25 mg/L): 5 (90% or greater); Antifungal index (mycelial growth inhibition rate) (Gaeumannomyces graminis; 2.50 mg/L): 5 (90% or greater); Growth inhibition index (wheat [2]; [3]): 0 (50% or more); Growth inhibition index (wheat [2]; [4]): 4 (Less than 20% but 10% or more); Growth inhibition index (wheat [2]; [5]): 4 (Less than 20% but 10% or more); Protective value (%) (Puccinia recondita): 29%

From patent publication US9253983B2, “Triazole compound and use thereof” (KUREHA CORPORATION, priority 2011, dated 2016)
